Experimental data from patent US20040053872A1, “New sequences” (priority 2000, published 2004).
Read-outs that look alike come from different tables or passages of the source. Strand notation (5' to 3'): a small letter for the sugar, then the base; units joined by * are phosphorothioate-linked, units joined directly phosphodiester-linked; [ ] holds rarer units or linkages, { } end groups; capitals alone tell only the bases. r = 2'-OH (RNA)

Experiments:
[1] = biological target: T1, recombinant HIV-1 RT L100I (Human immunodeficiency virus type 1 group M subtype B, UniProt P03366, L699I); assay type: biochemical; details: second strand DNA synthesis, preincubation 30 minutes at 33° C., 3 hours, read-out: IC50 of indicated inhibitor in DNAp assay
T1 construct: performed by recombinant HIV-1 RT:s with defined
Description: (§1) The flourimetric DNA-polymerase assay used is available from Cavidi Tech AB, Uppsala, Sweden. It is based on a short DNA primer analogous to a part of the tRNA^Lys3 sequence. The template is a single stranded deoxynucleotide template with part of the sequence complementary to the primer. The enzyme reaction is dependent on all four deoxynucleotide bases. The thymidine triphosphate is, however, replaced by BrdUTP. The amount of BrdUMP incorporated into DNA during the polymerase reaction is detected with an alkaline phosphatase (Ap) conjugated anti-BrdU monoclonal antibody. An Ap substrate, 4-methylumbelliferyl phosphate, is finally used for fluorimetric product detection.
(§2) (ii) Protocol for determination of inhibition of second strand synthesis on a variable DNA template: The inhibition studies were performed in a modified DNA polymerase assay. The inhibitors were serially diluted in five steps, enzyme dilution was added and the enzyme/inhibitor mixtures were incubated for 30 minutes at 33° C. The enzyme reaction was initiated by addition of 75 μl aliquots of the enzyme/inhibitor mixture to each well of a microtiter plate containing 75 μl DNA polymerase reaction mixture per well. The polymerase reaction was allowed to proceed for 3 hours at 33° C. whereupon the reaction was terminated by a wash of the plate. […] The amount of RT used was standardised to an activity corresponding to 40-60 pg (3.3-5.0×10^−16 mol) reference HIV-1 RT per well.
(§3) The capacity of the indicated substances to inhibit each enzyme in a panel of recombinant HIV 1 subtype B RTs was studied according to “Protocol for determination of inhibition of second strand synthesis on variable DNA template” (protocol (ii) above).

[2] = biological target: T2, recombinant HIV-1 RT E478Q (Human immunodeficiency virus type 1 group M subtype B, UniProt P03366, E1077Q); assay type: biochemical; details: second strand DNA synthesis, preincubation 30 minutes at 33° C., 3 hours, read-out: IC50 of indicated inhibitor in DNAp assay
T2 construct: performed by recombinant HIV-1 RT:s with defined
Description: as §1, §2, §3

[3] = biological target: T3, recombinant HIV-1 RT L100I/K103N (Human immunodeficiency virus type 1 group M subtype B, UniProt P03366, K702N/L699I); test: RT assay: inhibition of RNA dependent DNA polymerisation (modified Lenti RT assay); assay type: biochemical; details: enzyme/inhibitor preincubated 30 minutes at 33° C., BrdUTP 0.35 μM, odT22 0.03 ng per well, 3 hours, read-out: IC50 of indicated inhibitor in RT assay
T3 construct: performed by recombinant HIV-1 RT:s with defined
Description: (§4) The flourimetric RT assay (Cavidi® Lenti RT activity kit), available from Cavidi Tech, Uppsala, Sweden, was used for the determination of RT activity. In short, poly(rA) covalently bound to the wells of a 96 well microtiter plate serves as template for the incorporation of 5-bromodeoxyuridine 5′-triphosphate (BrdUTP) during the reverse transcription step at 33° C. The amount of bromodeoxyuridine monophosphate (BrdUMP) incorporated into DNA is detected with an alkaline phosphatase (Ap) conjugated, anti-BrdU monoclonal antibody. An Ap substrate, 4-methylumbelliferyl phosphate, is finally used for fluorimetric product detection.
(i) Protocol for determination of inhibition of RNA dependent DNA polymerisation: The inhibition studies were performed in a modified Lenti RT assay. The inhibitors were serially diluted in five steps, whereupon enzyme dilution was added and the enzyme/inhibitor mixtures were incubated for 30 minutes at 33° C. The enzyme reaction was initiated by addition of 100 μl aliquots of the enzyme/inhibitor mixture to each well of a microtiter plate containing 100 μl RT reaction mixture per well. The polymerase reaction was allowed to proceed for 3 hours at 33° C., whereupon the reaction was terminated by a wash of the plate. […] The amount of RT used was standardised to an activity corresponding to 90-130 pg (7-10×10^−16 mol) reference HIV-1 RT per well […]

[4] = biological target: T2, recombinant HIV-1 RT E478Q; test: as above; assay type: biochemical; details: read-out: IC50 of indicated inhibitor in RT assay
Description: as §4
(i) Protocol for determination of inhibition of RNA dependent DNA polymerisation: The inhibition studies were performed in a modified Lenti RT assay. The inhibitors were serially diluted in five steps, whereupon enzyme dilution was added and the enzyme/inhibitor mixtures were incubated for 30 minutes at 33° C. The enzyme reaction was initiated by addition of 100 μl aliquots of the enzyme/inhibitor mixture to each well of a microtiter plate containing 100 μl RT reaction mixture per well. The polymerase reaction was allowed to proceed for 3 hours at 33° C., whereupon the reaction was terminated by a wash of the plate. […] The amount of RT used was standardised to an activity corresponding to 90-130 pg (7-10×10^−16 mol) reference HIV-1 RT per well
The capacity of the indicated substances to inhibit the enzymes in a panel of recombinant HIV 1 subtype B RTs was studied according to “Protocol for determination of inhibition of RNA dependent DNA polymerisation” (protocol (i) above). The final nucleotide substrate (BrdUTP) concentration was 0.35 μM, and the primer (odT22) amount was 0.03 ng per well.
The RT reaction time used was 3 hours and the results are depicted in FIG. 8 (A-C).

[5] = system: panel of recombinant HIV 1 subtype B RTs; test: RT binding inhibition (BIC) assay, whole RT panel; details: all conditions studied
Description: (§5) (iii) Protocol for RT binding inhibition (BIC) assay: The study was performed in a modified DNA polymerase assay. The inhibitors were serially diluted in five steps, enzyme dilution was added and the enzyme/inhibitor mixtures were incubated for 30 minutes at 33° C. Aliquots of the enzyme/inhibitor mixture were transferred to each well of a microtiter plate containing either immobilised primer, or primer/template. The enzyme was allowed to bind to the immobilised polymer for 90 min at 33° C. The amount of RT used was standardised to an activity corresponding to 40-60 pg (3.3-5.0×10^−16 mol) reference HIV-1 RT per well. The plates were then washed to remove unbound enzyme whereupon the amount of bound enzyme was determined by addition of the appropriate reaction solution for polymerisation (i e a reaction solution devoid of primer for studies of primer binding and a reaction solution devoid of both primer and template for studies of binding to primed template). The polymerase reaction was allowed to proceed for 3 hours at 33° C., whereupon the reaction was terminated by a wash of the plate.
(§6) The capacity of the indicated substances to inhibit the binding to primer or to primed DNA template of a panel of recombinant HIV 1 subtype B RTs was studied according to “Protocol for RT binding inhibition (BIC) assay” (protocol (iii) above).

[6] = system: panel of recombinant HIV 1 subtype B RTs; test: DNAp assay: inhibition of second strand DNA synthesis, whole RT panel; assay type: biochemical; details: all RTs of the panel; summary of table 2; read-out: IC50, range over all RTs studied (second strand DNA synthesis)
Description: as §1
(ii) Protocol for determination of inhibition of second strand synthesis on a variable DNA template: The inhibition studies were performed in a modified DNA polymerase assay. […] The enzyme reaction was initiated by addition of 75 μl aliquots of the enzyme/inhibitor mixture to each well of a microtiter plate containing 75 μl DNA polymerase reaction mixture per well.
The results, which are summarised in table 2, were rather similar to those found for inhibition of reverse transcription (table 1).

[7] = biological target: recombinant HIV-1 RT, ref RT (HIV type B, clone BH 10) (Human immunodeficiency virus type 1 group M subtype B, UniProt P03366); design: performed by recombinant HIV-1 RT:s with defined; details: immobilised primer/template, binding 90 min at 33° C., read-out: Inhibition of binding to template/primer (BIC50)
Description: as §5, §6

[8] = enzyme/inhibitor preincubated 30 minutes at 33° C., BrdUTP 0.35 μM, odT22 0.03 ng per well, 3 hours

How did the IC50 [1] turn out when “substance 199: 35-mer RNA molecule having the sequence set out in SEQ ID NO:5; similar to SEQ ID NO:4 with some naturally occurring nucleotide derivatives (GCUCAGNCGGNAGAGCANCAGACUUUUAANCUGAN; RNA, backbone, methylation of C and the base at N not given here; naturally occurring modified nucleosides at n positions)” was run?
Its IC50 is 36 nM.

What about the IC50 [2] of the same substance?
Its IC50 is 34 nM.

And the IC50 [3]?
Its IC50 is 12 nM.

What about the IC50 ([4]; RT and inhibitor added directly to the assay mixture without preincubation) of the same substance?
Its IC50 is 11 nM.

And the IC50 [4, 8]?
The IC50 was 6 nM.

And the “Capacity to prevent RT binding to primer or primed template” value [5]?
Its value is “had the capacity to prevent RT binding to either primer alone or to primed template”.

And the IC50 [6]?
Its IC50 is 36 to 51 nM.

And the IC50 [7]?
Its IC50 is 7 nM.

“substance 198: 15-mer RNA phosphorothioate with the base sequence of tRNALys3 anticodon stem and loop, SEQ ID NO:7 (rC*rA*rG*rA*rC*rU*rU*rU*rU*rA*rA*rU*rC*rU*rG) [reference compound]” was tested. Which IC50 [1] did it give?
Its IC50 is 220 nM.

And the IC50 [2]?
Its IC50 is 1000 nM.

And the IC50 [3]?
Its IC50 is 900 nM.

And the IC50 [4, 8]?
Its IC50 is 320 nM.

And the “Capacity to prevent RT binding to primer or primed template” value [5]?
Its value is “significantly less capacity to prevent RT binding”.

And the IC50 [6]?
Its IC50 is 550 to 1000 nM.

What about the IC50 [7] of the same substance?
Its IC50 is 900 nM.
